Read-outs that look alike come from different tables or passages of the source.
How the values were obtained:
[1] = Pharmacokinetic study in rats, plasma levels of the (4S,5S) cis enantiomer by chiral LC-MS/MS; format: in vivo, male Wistar Hannover rats; conditions: for Vd: male, rat
[2] = Dissolution profiles of the hot melt extrusion formulations, Sink conditions (HCL 0.1N, pH 1.2 + Sodium Lauryl Sulfate 0.1%); format: physicochemical; conditions: for % dissolved (pH 1.2 SLS 0.1%): Sink, HCL 0.1N pH 1.2 + SLS 0.1%, paddles 50 rpm, 1000 ml, 37° C.
Source text: (§1) A mixture has been prepared during two minutes in proportion as described in Table 4. The “Hot Melt Extrusion” formulations, in percentage, have been developed for each series.
(§2) The mixture has been loaded in an extruder and the temperature has been adjusted according to the type of polymer used, as described below:
(§3) The obtained extrudates have been cooled at room temperature and milled. The particle size has then been homogenized. A powder has been obtained which has then been dosified in capsules for administration
(§4) The dissolution apparatus used was HANSON […]. SR8 PLUS, the UV spectrophotometer HEWLET PACKARD 8452.
In the SINK conditions, the active ingredient concentration in the dissolution medium is below 20% of the saturation concentration, i.e. the active ingredient will dissolve easily in the medium.
The conditions used for the Sink assays were:
Dissolution medium: HCL 0.1N, pH 1.2+Sodium Lauryl Sulfate 0.1%
(§5) Vessel temperature 37° C.

[3] = Dissolution profiles of the hot melt extrusion formulations, Non-Sink conditions (HCL 0.1N, pH 1.2); format: physicochemical; conditions: for % dissolved (pH 1.2): Non-Sink, HCL 0.1N pH 1.2, paddles 50 rpm, 1000 ml, 37° C.
Source text: as §1, §2, §3, §4
In the NON-SINK conditions, the active ingredient concentration in the dissolution medium is above the saturation concentration, i.e. the active ingredient is in a medium in which it is not soluble.
The conditions used for the Non-Sink assays were:
Dissolution medium: HCL 0.1N, pH 1.2
as §5

[4] = Wistar Hannover (HSDHan:WIST), po, 20 mg/kg, male rat, single dose, fasting, analyte (4S,5S) cis enantiomer in plasma, suspension = active alone in 5% arabic gum, HME = example 15
[5] = Wistar Hannover, plasma, iv, 1 mg/kg, male rat, solution
[6] = Solubility increase (Δ) = FD60 min formulation/FD % 60 min (drug), FD = dissolved drug fraction

Structure (SMILES): C[C@@H]1C(C(=O)NN2[C@H](C)CCC[C@@H]2C)=NN(c2ccc(Cl)cc2Cl)[C@@H]1c1ccc(Cl)cc1 [(4S,5S) cis enantiomer, (4S,5S)-5-(4-chlorophenyl)-1-(2,4-dichlorophenyl)-N-(cis-2,6-dimethylpiperidin-1-yl)-4-methyl-4,5-dihydro-1H-pyrazole-3-carboxamide]
- AUC(0-t) [1, 4]: 374 ng·h/mL
- Tmax [1, 4]: 6 h
- Cmax ([1]; Wistar Hannover (HSDHan:WIST), po, 20 mg/kg, male rat, single dose, fasting, analyte (4S,5S) cis enantiomer in plasma, suspension = active alone in 5% arabic gum, HME = example 15, read-out: Cmax): 103 ng/mL
- AUC(0-inf) [1, 5]: 559 ng·h/mL
- AUC(0-t) [1, 5]: 534 ng·h/mL
- clearance [1, 5]: 30 mL/min/kg
- half-life [1, 5]: 8.2 h
- Cmax ([1]; Wistar Hannover, plasma, iv, 1 mg/kg, male rat, solution, read-out: Cmax (C0 for intravenous)): 828 ng/mL
- Vd ([1]; Wistar Hannover, plasma, iv, 1 mg/kg, iv, 1 mg/kg, solution, read-out: Vd): 21.1 L/kg
- Vd ([1]; Wistar Hannover, plasma, iv, 1 mg/kg, iv, 1 mg/kg, solution, read-out: Vss): 8.7 L/kg
- F (Absolute bioavailability estimated from AUC0-t) ([1]; po, 20 mg/kg, male rat, versus iv 1 mg/kg solution, suspension = active alone in 5% arabic gum, HME = example 15): 3.5%
- Increase (Δ) 60 min. Sink Conditions [2, 6]: 0.00
- % dissolved (pH 1.2 SLS 0.1%) ([2]; time 0 min): 0.0%
- % dissolved (pH 1.2 SLS 0.1%) ([2]; time 5 min): 4.1%
- % dissolved (pH 1.2 SLS 0.1%) ([2]; time 10 min): 6.5%
- % dissolved (pH 1.2 SLS 0.1%) ([2]; time 15 min): 11.8%
- % dissolved (pH 1.2 SLS 0.1%) ([2]; time 20 min): 16.0%
- % dissolved (pH 1.2 SLS 0.1%) ([2]; time 30 min): 24.3%
- % dissolved (pH 1.2 SLS 0.1%) ([2]; time 45 min): 37.8%
- % dissolved (pH 1.2 SLS 0.1%) ([2]; time 60 min): 53.0%
- Increase (Δ) 60 min. Non Sink Conditions [3, 6]: 0.00
- % dissolved (pH 1.2) ([3]; time 0 min): 0.0%
- % dissolved (pH 1.2) ([3]; time 5 min): 2.2%
- % dissolved (pH 1.2) ([3]; time 10 min): 1.9%
- % dissolved (pH 1.2) ([3]; time 15 min): 1.4%
- % dissolved (pH 1.2) ([3]; time 20 min): 1.5%
- % dissolved (pH 1.2) ([3]; time 30 min): 1.6%
- % dissolved (pH 1.2) ([3]; time 45 min): 2.7%
- % dissolved (pH 1.2) ([3]; time 60 min): 2.9%

Source: US20110159086A1, “PHARMACEUTICAL FORMULATION COMPRISING A CB1-RECEPTOR COMPOUND IN A SOLID SOLUTION AND/OR SOLID DISPERSION” (LABORATORIOS DEL DR. ESTEVE, S.A., priority 2008, published 2011)
